For this experiment, the target named is T1, Human MTAP (Homo sapiens, UniProt Q13126).
T1 construct: six-histidine tag (His6) (N); made in house; host or cells: E. coli BL21 DE3
T1 sequence (Q13126 1-283): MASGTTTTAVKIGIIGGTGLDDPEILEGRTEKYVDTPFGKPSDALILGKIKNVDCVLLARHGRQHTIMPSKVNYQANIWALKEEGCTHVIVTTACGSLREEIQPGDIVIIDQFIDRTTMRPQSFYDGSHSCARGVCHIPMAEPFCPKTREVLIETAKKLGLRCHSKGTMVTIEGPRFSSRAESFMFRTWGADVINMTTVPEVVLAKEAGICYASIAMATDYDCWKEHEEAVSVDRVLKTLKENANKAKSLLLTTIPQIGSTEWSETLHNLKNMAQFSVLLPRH
Put plainly: MTAP substrate assay, coupled spectrophotometric (adenine, xanthine oxidase). It is filed as biochemical. The note with it: 2 nM MTAP; for activity at 50 µM: 10 min, read-out: MT-A—50: initial velocity as a percentage of the initial velocity with MTA as substrate; for MT-A—10: initial velocity as a percentage of the initial velocity with MTA as substrate: compound 10 uM, relative to MTA at 10 uM. In a few lines:
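Detection was xanthine oxidase-coupled (0.8 units/ml), reading adenine-derived absorbance at 305 nm over 10 min in potassium phosphate/DTT buffer at 37° C, with N-His6 enzyme purified from E. coli.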

Where [1] appears, read: compound 50 uM, relative to MTA at 50 uM.

The record followed here is patent publication US20040043959A1, “Combination therapies for treating methylthioadenosine phosphorylase deficient cells” (priority 2002, published 2004).

As for `Nc1ccc(SC[C@H]2O[C@@H](n3cnc4c(N)ncnc43)[C@H](O)[C@@H]2O)cc1` [2(G)(10), (2R, 3R, 4S, 5S)-2-(6-amino-9H-purin-9-yl)-5-{[(4-aminophenyl)thio]methyl]-tetrahydrofuran-3,4-diol], the “MT-A—10: initial velocity as a percentage of the initial velocity with MTA as substrate” value turned out to be 20%. In addition, the activity at 50 µM under setting [1] was determined as 19%.
Take `CC(=O)Nc1ccc(SC[C@H]2O[C@@H](n3cnc4c(N)ncnc43)[C@H](O)[C@@H]2O)cc1` [2(G)(13), N-[4-({[(2S, 3S, 4R, 5R)-5-(6-amino-9H-purin-9-yl)-dihydroxytetrahydro-furan-2-yl]methyl}thio)phenyl]acetamide]: the “MT-A—10: initial velocity as a percentage of the initial velocity with MTA as substrate” value worked out at 19%. The “MT-A—50: initial velocity as a percentage of the initial velocity with MTA as substrate” value under setting [1] came out at 17%.
As for `Cn1c(CO)cnc1SC[C@H]1O[C@@H](n2cnc3c(N)ncnc32)[C@H](O)[C@@H]1O` [2(G)(63), (2R, 3R, 4S, 5S)-2-(6-amino-9H-purin-9-yl)-5-({[5-(hydroxymethyl)-1-methyl-1H-imidazol-2-yl]thio}methyl)tetra-hydrofuran-3,4-diol], the “MT-A—10: initial velocity as a percentage of the initial velocity with MTA as substrate” value is 5%. For the same compound, the activity at 50 µM under setting [1] came out at 5%.
Take `Nc1ncnc2c1ncn2[C@@H]1O[C@H](CSc2ccccc2Br)[C@@H](O)[C@H]1O` [2(G)(70), (2R, 3R, 4S, 5S)-2-(6-amino-9H-purin-9-yl)-5-{[(2-bromophenyl)-thio]methyl}tetrahydro-furan-3,4-diol]: the “MT-A—10: initial velocity as a percentage of the initial velocity with MTA as substrate” value is reported as 6%. Under setting [1], the activity at 50 µM came to 3%.
In the same order, the values of `Nc1ncnc2c1ncn2[C@@H]1O[C@H](CSCc2ccccc2F)[C@@H](O)[C@H]1O` [2(G)(127), (2R, 3R, 4S, 5S)-2-(6-amino-9H-purin-9-yl)-5-{[(2-fluorobenzyl)-thio]methyl}tetrahydro-furan-3,4-diol] are 56% and 58.5%.
The corresponding values for `Nc1ncnc2c1ncn2[C@@H]1O[C@H](CSc2c(Cl)cccc2Cl)[C@@H](O)[C@H]1O` [2(G)(102), (2R, 3R, 4S, 5S)-2-(6-amino-9H-purin-9-yl)-5-{[(2,6-dichIorophenyl)-thio]methyl}tetrahydro-furan-3,4-diol] are 2% and 3%.
The corresponding values for `Nc1ncnc2c1ncn2[C@@H]1O[C@H](CSCc2ccc(Cl)cc2)[C@@H](O)[C@H]1O` [2(G)(124), (2R, 3R, 4S, 5S)-2-(6-amino-9H-purin-9-yl)-5-[{(4-chlorobenzyl)thio]-methyl}tetrahydrofuran-3,4-diol] are 47% and 51%.
`Nc1ncnc2c1ncn2[C@@H]1O[C@H](CSCC(=O)Nc2ccccc2)[C@@H](O)[C@H]1O` [2(G)(104), 2-({[(2S, 3S, 4R, 5R)-5-(6-amino-9H-purin-9-yl)-3,4-dihydroxytetrahydro-furan-2-yl]methyl}thio)-N-phenylacetamide]: the “MT-A—10: initial velocity as a percentage of the initial velocity with MTA as substrate” value is recorded as 5%. In addition, the activity at 50 µM under setting [1] came to 15%.
As to `Nc1ncnc2c1ncn2[C@@H]1O[C@H](CSc2ccc(O)cc2)[C@@H](O)[C@H]1O` [2(G)(14), (2R, 3R, 4S, 5S)-2-(6-amino-9H-purin-9-yl)-5-{[(4-hydroxyphenyl)-thio]-methyl}tetrahydrofuran-3,4-diol], the “MT-A—10: initial velocity as a percentage of the initial velocity with MTA as substrate” value worked out at 16%. For the same compound, the activity at 50 µM under setting [1] stood at 51%.
For `CC(C)(C)c1cc(O)nc(SC[C@H]2O[C@@H](n3cnc4c(N)ncnc43)[C@H](O)[C@@H]2O)n1` [2(G)(165), (2R, 3R, 4S, 5S)-2-(6-amino-9H-purin-9-yl)-5-{[(4-tert-butyl-6-hydroxypyrimidin-2-yl)thio]methyl}tetrahydro-furan-3,4-diol], the “MT-A—10: initial velocity as a percentage of the initial velocity with MTA as substrate” value is listed as 25%. In addition, the activity at 50 µM under setting [1] came to 33.5%.
Consider `CC(C)n1c(O)nnc1SC[C@H]1O[C@@H](n2cnc3c(N)ncnc32)[C@H](O)[C@@H]1O` [2(G)(65), (2R, 3R, 4S, 5S)-2-(6-amino-9H-purin-9-yl)-5-{[(5-hydroxy-4-isopropyl-4H-1,2,4-triazol-3-yl)thio]methyl}tetrahydrofuran-3,4-diol], for which the “MT-A—10: initial velocity as a percentage of the initial velocity with MTA as substrate” value is given as 5%. Under setting [1], the activity at 50 µM was determined as 4%.
In the same order, the values of `Nc1cccc(SC[C@H]2O[C@@H](n3cnc4c(N)ncnc43)[C@H](O)[C@@H]2O)c1` [2(G)(72), (2R, 3R, 4S, 5S)-2-(6-amino-9H-purin-9-yl)-5-{[(3-aminophenyl)thio]-methyl}tetrahydrofuran-3,4-diol] are 33% and 38%.
As to `Nc1ncnc2c1ncn2[C@@H]1O[C@H](CSc2nc3ccccc3s2)[C@@H](O)[C@H]1O` [2(G)(12), (2R, 3R, 4S, 5S)-2-(6-amino-9H-purin-9-yl)-5-[(1,3-benzothiazol-2-ylthio)methyl]tetrahydro-furan-3,4-diol], the “MT-A—10: initial velocity as a percentage of the initial velocity with MTA as substrate” value was 24%. In addition, the activity at 50 µM under setting [1] is 25%.
The corresponding values for `Nc1ncnc2c1ncn2[C@@H]1O[C@H](CSc2ccccc2O)[C@@H](O)[C@H]1O` [2(G)(27), (2R, 3R, 4S, 5S)-2-(6-amino-9H-purin-9-yl)-5-{[(2-hydroxyphenyl)-thio]methyl}tetrahydro-furan-3,4-diol] are 7% and 23%.
Take `Nc1ncnc2c1ncn2[C@@H]1O[C@H](CSc2nc3cccnc3s2)[C@@H](O)[C@H]1O` [2(G)(85), (2R, 3R, 4S, 5S)-2-(6-amino-9H-purin-9-yl)-5-[([1,3]thiozolo[5,4-b]pyridin-2-ylthio)-methyl]tetrahydrofuran-3,4-diol]: the “MT-A—10: initial velocity as a percentage of the initial velocity with MTA as substrate” value is given as 10%. The activity at 50 µM under setting [1] was 2%.
As for `Nc1ncnc2c1ncn2[C@@H]1O[C@H](CSc2cnccn2)[C@@H](O)[C@H]1O` [2(G)(69), (2R, 3R, 4S, 5S)-2-(6-amino-9H-purin-9-yl)-5-[(pyrazin-2-ylthio)methyl]tetrahydro-furan-3,4-diol], the “MT-A—10: initial velocity as a percentage of the initial velocity with MTA as substrate” value is 31%. Under setting [1], the activity at 50 µM came to 40%.
With `COC(=O)c1cnc(SC[C@H]2O[C@@H](n3cnc4c(N)ncnc43)[C@H](O)[C@@H]2O)n1C` [2(G)(164), Methyl 2-({[(2S, 3S, 4R, 5R)-5-(6-amino-9H-purin-9-yl)-3,4-dihydroxy-tetrahydrofuran-2-yl]methyl}thio)-1-methyl-1H-imidazole-5-carboxylate], the “MT-A—10: initial velocity as a percentage of the initial velocity with MTA as substrate” value came out at 13.5%. The activity at 50 µM under setting [1] came to 29%.
The corresponding values for `COc1ccc(OC)c(SC[C@H]2O[C@@H](n3cnc4c(N)ncnc43)[C@H](O)[C@@H]2O)c1` [2(G)(24), (2R, 3R, 4S, 5S)-2-(6-amino-9H-purin-9-yl)-5-{[(2,5-dimethoxy-phenyl)-thio]methyl}tetrahydrofuran-3,4-diol] are 4% and 23%.
